Source: PubChem BioAssay AID328 (DTP/NCI, 2004)
Where “and” joins values, the source holds several entries; their conditions need not be identical. Equal values may be shown once. Inconclusive results and toxic doses are left out. The calls were made as follows: active = survival T/C of 150% or more; inactive = T/C below 125% in these data.

Tested on: BDF1 mice, P388 leukemia ip, median survival T/C
Assay: NCI In Vivo Anticancer Drug Screen. Data for tumor model P388 Leukemia (intraperitoneal) in B6D2F1 (BDF1) mice
Details: endpoint: median survival time, higher = longer survival
How it was run: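 In tumour-bearing mice, survival after compound treatment is set against the vehicle group and given as a quotient.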

[1] = dose: 100.0 mg/kg/injection, schedule: Q04DX003 (ip), vehicle: saline with Tween-80
[2] = dose: 200.0 mg/kg/injection, schedule: Q04DX003 (ip), vehicle: saline with Tween-80
[3] = dose: 400.0 mg/kg/injection, schedule: Q04DX003 (ip), vehicle: saline with Tween-80
[4] = dose: 100.0 mg/kg/injection, schedule: Q01DX001 (ip), vehicle: saline with Tween-80

Measured: T/C

COc1cc2c(cc1O)C(=O)CCCC2
inactive: dose: 25.0 mg/kg/injection, schedule: Q01DX009 (ip), vehicle: saline with Tween-80 97 % of control | dose: 50.0 mg/kg/injection, schedule: Q01DX009 (ip), vehicle: saline with Tween-80 101 % of control and 120 % of control | dose: 100.0 mg/kg/injection, schedule: Q01DX009 (ip), vehicle: Klucel (hydroxypropylcellulose) (HPC) 103 % of control | dose: 100.0 mg/kg/injection, schedule: Q01DX009 (ip), vehicle: saline with Tween-80 97 % of control | [1] 100 % of control | dose: 200.0 mg/kg/injection, schedule: Q01DX009 (ip), vehicle: Klucel (hydroxypropylcellulose) (HPC) 103 % of control | [2] 104 % of control | dose: 400.0 mg/kg/injection, schedule: Q01DX009 (ip), vehicle: Klucel (hydroxypropylcellulose) (HPC) 103 % of control | [3] 95 % of control

CN(C)C(=S)SSC(=S)N(C)C
inactive: dose: 25.0 mg/kg/injection, schedule: Q04DX003 (ip), vehicle: Klucel (hydroxypropylcellulose) (HPC) 109 % of control | dose: 50.0 mg/kg/injection, schedule: Q04DX003 (ip), vehicle: Klucel (hydroxypropylcellulose) (HPC) 118 % of control | dose: 100.0 mg/kg/injection, schedule: Q01DX001 (ip), vehicle: Klucel (hydroxypropylcellulose) (HPC) 100 % of control | dose: 100.0 mg/kg/injection, schedule: Q04DX003 (ip), vehicle: Klucel (hydroxypropylcellulose) (HPC) 113 % of control | dose: 200.0 mg/kg/injection, schedule: Q01DX001 (ip), vehicle: Klucel (hydroxypropylcellulose) (HPC) 109 % of control | dose: 400.0 mg/kg/injection, schedule: Q01DX001 (ip), vehicle: Klucel (hydroxypropylcellulose) (HPC) 113 % of control

C[N+](C)(C)CC(O)CC#N (centres undefined)
inactive: dose: 12.5 mg/kg/injection, schedule: Q01DX009 (ip), vehicle: Klucel (hydroxypropylcellulose) (HPC) 100 % of control | dose: 25.0 mg/kg/injection, schedule: Q01DX009 (ip), vehicle: Klucel (hydroxypropylcellulose) (HPC) 100 % of control | dose: 50.0 mg/kg/injection, schedule: Q01DX009 (ip), vehicle: Klucel (hydroxypropylcellulose) (HPC) 90 % of control

O=C(NC(=S)Nc1ccccc1C(=O)O)c1ccccc1
inactive: dose: 50.0 mg/kg/injection, schedule: Q04DX003 (ip), vehicle: saline with Tween-80 104 % of control | [1] 100 % of control | [2] 90 % of control

FC(Cl)(Cl)c1nc2nc(Cl)c(Cl)nc2[nH]1
inactive: dose: 3.12 mg/kg/injection, schedule: Q01DX009 (ip), vehicle: water 104 % of control | dose: 6.25 mg/kg/injection, schedule: Q01DX009 (ip), vehicle: water 107 % of control | dose: 6.25 mg/kg/injection, schedule: Q04DX003 (ip), vehicle: water 116 % of control | dose: 12.5 mg/kg/injection, schedule: Q01DX009 (ip), vehicle: water 100 % of control | dose: 12.5 mg/kg/injection, schedule: Q04DX003 (ip), vehicle: water 116 % of control | dose: 25.0 mg/kg/injection, schedule: Q01DX009 (ip), vehicle: water 108 % of control | dose: 25.0 mg/kg/injection, schedule: Q04DX003 (ip), vehicle: water 102 % of control | dose: 50.0 mg/kg/injection, schedule: Q01DX009 (ip), vehicle: water 118 % of control | dose: 50.0 mg/kg/injection, schedule: Q04DX003 (ip), vehicle: water 116 % of control | dose: 100.0 mg/kg/injection, schedule: Q01DX009 (ip), vehicle: water 101 % of control | dose: 100.0 mg/kg/injection, schedule: Q04DX003 (ip), vehicle: water 102 % of control

O=C(O)c1cc([N+](=O)[O-])cc([N+](=O)[O-])c1 (tested in a mixture with another compound)
inactive: dose: 3.13 mg/kg/injection, schedule: Q04DX002 (ip), vehicle: saline with Tween-80 100 % of control | dose: 6.25 mg/kg/injection, schedule: Q04DX002 (ip), vehicle: saline with Tween-80 108 % of control | dose: 12.5 mg/kg/injection, schedule: Q04DX002 (ip), vehicle: saline with Tween-80 104 % of control | dose: 25.0 mg/kg/injection, schedule: Q04DX002 (ip), vehicle: saline with Tween-80 112 % of control

CC1=C2C(=O)c3ccccc3C2=C(C)S(=O)(=O)O1
inactive: dose: 50.0 mg/kg/injection, schedule: Q01DX009 (ip), vehicle: carboxymethylcellulose (CMC) 119 % of control | dose: 100.0 mg/kg/injection, schedule: Q01DX009 (ip), vehicle: carboxymethylcellulose (CMC) 90 % of control | [1] 122 % of control

FCc1nc2nc(Cl)c(Cl)nc2[nH]1
inactive: dose: 1.0 mg/kg/injection, schedule: Q01DX009 (ip), vehicle: saline 96 % of control | dose: 2.0 mg/kg/injection, schedule: Q01DX009 (ip), vehicle: saline 99 % of control and 100 % of control | dose: 4.0 mg/kg/injection, schedule: Q01DX009 (ip), vehicle: saline 90 % of control and 105 % of control | dose: 8.0 mg/kg/injection, schedule: Q01DX009 (ip), vehicle: saline 99 % of control | dose: 16.0 mg/kg/injection, schedule: Q01DX009 (ip), vehicle: saline 100 % of control | dose: 50.0 mg/kg/injection, schedule: Q04DX003 (ip), vehicle: saline 104 % of control | dose: 100.0 mg/kg/injection, schedule: Q04DX003 (ip), vehicle: saline 101 % of control

O=[N+]([O-])c1ccccc1CSc1ncnc2nc[nH]c12
inactive: [1] 100 % of control | dose: 132.0 mg/kg/injection, schedule: Q01DX009 (ip), vehicle: saline with Tween-80 104 % of control | dose: 200.0 mg/kg/injection, schedule: Q01DX009 (ip), vehicle: saline with Tween-80 100 % of control | [2] 108 % of control | dose: 300.0 mg/kg/injection, schedule: Q01DX009 (ip), vehicle: saline with Tween-80 86 % of control | [3] 116 % of control

CCCCCCCCCCCCCCSC(CC(=O)O)C(=O)O (centres undefined)
inactive: dose: 15.0 mg/kg/injection, schedule: Q01DX009 (ip), vehicle: saline with Tween-80 87 % of control | dose: 30.0 mg/kg/injection, schedule: Q01DX009 (ip), vehicle: saline with Tween-80 98 % of control | dose: 60.0 mg/kg/injection, schedule: Q01DX009 (ip), vehicle: saline with Tween-80 94 % of control

CC(C(Nc1ccc(C(=O)O)cc1)C(F)(F)C(F)(F)C(F)(F)F)[N+](=O)[O-] (centres undefined)
inactive: [4] 95 % of control | dose: 200.0 mg/kg/injection, schedule: Q01DX001 (ip), vehicle: saline with Tween-80 104 % of control | dose: 400.0 mg/kg/injection, schedule: Q01DX001 (ip), vehicle: saline with Tween-80 100 % of control

CC(=O)C1=CC(=O)NC(=O)C1C(=O)CC(C)C (centres undefined)
inactive: dose: 1.56 mg/kg/injection, schedule: Q01DX009 (ip), vehicle: saline + alcohol 115 % of control | dose: 3.13 mg/kg/injection, schedule: Q01DX009 (ip), vehicle: saline + alcohol 123 % of control | dose: 6.25 mg/kg/injection, schedule: Q01DX009 (ip), vehicle: other 118 % of control | dose: 6.25 mg/kg/injection, schedule: Q01DX009 (ip), vehicle: saline + alcohol 106 % of control

O=C(O)c1ccccc1Nc1ccc(Br)cc1
inactive: dose: 50.0 mg/kg/injection, schedule: Q01DX001 (ip), vehicle: saline with Tween-80 100 % of control | [4] 91 % of control

O=S(=O)([O-])NC1CCCCC1.O=S(=O)([O-])NC1CCCCC1.[Hg+2].[Hg+2].[Hg+2].[O-2].[O-2]
inactive: dose: 0.5 mg/kg/injection, schedule: Q01DX009 (ip), vehicle: Klucel (hydroxypropylcellulose) (HPC) 99 % of control | dose: 1.0 mg/kg/injection, schedule: Q01DX009 (ip), vehicle: Klucel (hydroxypropylcellulose) (HPC) 111 % of control | dose: 2.0 mg/kg/injection, schedule: Q01DX009 (ip), vehicle: Klucel (hydroxypropylcellulose) (HPC) 111 % of control | dose: 4.0 mg/kg/injection, schedule: Q01DX009 (ip), vehicle: Klucel (hydroxypropylcellulose) (HPC) 121 % of control | dose: 8.0 mg/kg/injection, schedule: Q01DX009 (ip), vehicle: Klucel (hydroxypropylcellulose) (HPC) 101 % of control
